Results on 29 compounds are retold here after patent US9809573B2, “Substituted pyridine derivatives useful as GSK-3 inhibitors” (priority 2013, dated 2017).

The subject of one assay is pTau. As to the kind of experiment: pTau assay (method not described). It is filed as cell-based.
The target in the next assay is GSK3β (Homo sapiens, UniProt P49841). Description: GSK3β kinase assay (Caliper LabChip3000, fluoresceinated peptide substrate). It is filed as biochemical. The essentials:
(§1)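 Readout: electrophoretic resolution of phosphorylated from unphosphorylated peptide on a LabChip3000. Reactions incubated 20 h at room temperature before termination with 35 mM EDTA. Eleven-concentration curves gave IC50 via non-linear regression.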

The target in another assay is GSK3α (Homo sapiens, UniProt P49840). As to the kind of experiment: biochemical. The essentials:
as §1

The mark [1] stands for this setting: first value of the cell, 250 pM enzyme, 20 uM ATP, 20 hours at room temperature, read-out: GSK3β/α (nM): GSK3β IC50.
[2] abbreviates: second value of the cell, 250 pM enzyme, 20 uM ATP, 20 hours at room temperature, read-out: GSK3β/α (nM): GSK3α IC50.

Read-outs that look alike come from different tables or passages of the source.

Chain of GSK3β (P49841 whole entry, species assumed): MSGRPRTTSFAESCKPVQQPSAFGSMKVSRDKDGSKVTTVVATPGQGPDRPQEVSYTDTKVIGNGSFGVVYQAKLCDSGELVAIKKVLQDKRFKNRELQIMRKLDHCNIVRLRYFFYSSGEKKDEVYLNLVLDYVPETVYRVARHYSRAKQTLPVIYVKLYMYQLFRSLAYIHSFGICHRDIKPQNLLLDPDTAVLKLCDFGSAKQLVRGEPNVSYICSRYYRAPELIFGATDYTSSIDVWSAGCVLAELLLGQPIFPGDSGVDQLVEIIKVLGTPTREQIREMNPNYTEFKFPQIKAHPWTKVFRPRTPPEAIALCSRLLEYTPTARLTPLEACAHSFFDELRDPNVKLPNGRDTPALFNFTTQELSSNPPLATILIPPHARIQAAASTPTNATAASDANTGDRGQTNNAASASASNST
Chain of GSK3α (P49840 whole entry, species assumed): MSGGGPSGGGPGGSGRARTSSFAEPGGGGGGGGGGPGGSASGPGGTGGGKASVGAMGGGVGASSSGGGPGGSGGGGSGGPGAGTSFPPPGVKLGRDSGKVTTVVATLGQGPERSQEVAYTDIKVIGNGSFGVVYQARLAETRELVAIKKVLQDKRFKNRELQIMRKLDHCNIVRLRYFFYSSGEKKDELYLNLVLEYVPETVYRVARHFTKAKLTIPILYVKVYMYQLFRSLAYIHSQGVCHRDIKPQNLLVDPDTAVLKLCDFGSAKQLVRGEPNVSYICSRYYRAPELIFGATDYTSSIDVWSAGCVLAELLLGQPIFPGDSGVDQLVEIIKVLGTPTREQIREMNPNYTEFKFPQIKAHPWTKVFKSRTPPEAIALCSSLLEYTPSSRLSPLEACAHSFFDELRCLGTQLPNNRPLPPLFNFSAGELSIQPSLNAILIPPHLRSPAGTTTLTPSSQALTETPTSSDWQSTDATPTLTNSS

As to `C=C(c1ccccc1)c1ccncc1NC(=O)c1ccnc(NC(=O)C(C)C)c1` [Example 200, 2-Isobutyramido-N-(4-(1-phenylvinyl)pyridine-3-yl)isonicotinamide], the results for the IC50 in the assay with pTau (read-out: pTau), on GSK3β (setting [1]) and on GSK3α (setting [2]) were 510 nM, 6.1 nM and 4.7 nM, respectively.

For the compound `CC(C)(C)C(=O)Nc1cc(C(=O)Nc2cnccc2N2CCC(F)(F)CC2)ccn1` [Example 208, N-(4-(4,4-difluoropiperidin-1-yl)pyridin-3-yl)-2-pivalamidoisonicotinamide], the results for the IC50 in the assay on pTau (read-out: pTau), at GSK3β and on GSK3α (setting [2]) were 120 nM, 4.2 nM and 3.1 nM, respectively.

Consider `CC(=O)Nc1ccc(NC(=O)c2ccnc(NC(=O)C3CC3)c2)cn1` [Example 4, N-(6-Acetamidopyridin-3-yl)-2-(cyclopropanecarboxamido)isonicotinamide], for which the IC50 with pTau (read-out: pTau) was 7200 nM; on GSK3β (setting [1]), 370 nM; on GSK3α (setting [2]) it was 180 nM.

Turning to `CC(C)C(=O)Nc1cc(C(=O)Nc2cnccc2C(F)c2ccccc2)ccn1` (stereo not drawn) [Example 199, N-(4-(fluoro(phenyl)methyl)pyridin-3-yl)-2-isobutyramidoisonicotinamide], the IC50 came out at 720 nM in the assay on pTau (read-out: pTau), 10 nM at GSK3β (setting [1]) and 12 nM on GSK3α (setting [2]).

For `O=C(Nc1c(N2CCOCC2)ccnc1F)c1ccnc(NC(=O)C2CC2)c1` [Example 88, 2-(Cyclopropanecarboxamido)-N-(2-fluoro-4-morpholinopyridin-3-yl)isonicotinamide], the results for the IC50 in the assay with pTau (read-out: pTau), on GSK3β (setting [1]) and at GSK3α (setting [2]) were 170 nM, 9.1 nM and 3.9 nM, respectively.

With `CC(C)C(=O)Nc1cc(C(=O)Nc2cnc(F)cc2OCC(F)F)ccn1` [Example 187, N-(4-(2,2-difluoroethoxy)-6-fluoropyridin-3-yl)-2-isobutyramidoisonicotinamide], the IC50 with pTau (read-out: pTau) is 210 nM; on GSK3β (setting [1]), 2.7 nM; on GSK3α (setting [2]), 1.2 nM.

Regarding `O=C(Nc1cnccc1-c1ccc(Cl)cc1)c1ccnc(NC(=O)C2CC(F)C2)c1` (single isomer, unassigned) [Example 222, N-(4-(4-chlorophenyl)pyridin-3-yl)-2-((1,3-trans)-3-fluorocyclobutanecarboxamido)isonicotinamide], the IC50 in the assay with pTau (read-out: pTau) is 37 nM; on GSK3β (read-out: GSK3β/α (nM): GSK3β IC50, first value of the cell, 250 pM enzyme, 20 uM ATP, 20 hours at room temperature) it was 1.7 nM; at GSK3α (read-out: GSK3β/α (nM): GSK3α IC50, second value of the cell, 250 pM enzyme, 20 uM ATP, 20 hours at room temperature), 1.3 nM.

As to `O=C(Nc1c(-c2ccccc2)ncc2ccccc12)c1ccnc(NC(=O)C2CC2)c1` [Example 63, 2-(Cyclopropanecarboxamido)-N-(3-phenylisoquinolin-4-yl)isonicotinamide], the IC50 in the assay with pTau (read-out: pTau) came to 4100 nM; on GSK3β (setting [1]), 12 nM; on GSK3α (setting [2]) it was 56 nM.

Regarding `Cc1c(NC(=O)c2ccnc(NC(=O)C3CC3)c2)cnn1C` [Example 175, 2-(cyclopropanecarboxamido)-N-(1,5-dimethyl-1H-pyrazol-4-yl)isonicotinamide], the figures for the IC50 in the assay on pTau (read-out: pTau), at GSK3β (setting [1]) and on GSK3α (setting [2]) were 3700 nM, 68 nM and 33 nM, respectively.

Take `O=C(Nc1cncc2ccccc12)c1ccnc(NC(=O)C2CC2)c1` [Example 6, 2-(Cyclopropanecarboxamido)-N-(isoquinolin-4-yl)isonicotinamide]: the IC50 in the assay with pTau (read-out: pTau) was determined as 190 nM; at GSK3β (setting [1]), 7.2 nM; on GSK3α (setting [2]), 2.7 nM.

In the case of `O=C(Nc1cnccn1)c1ccnc(NC(=O)C2CC2)c1` [Example 170, 2-(Cyclopropanecarboxamido)-N-(pyrazin-2-yl)isonicotinamide], the IC50 stood at 570 nM with pTau (read-out: pTau), 8.1 nM at GSK3β (setting [1]) and 2.9 nM at GSK3α (setting [2]).

Turning to `O=C(Nc1cncnc1N1CCC(F)(F)CC1)c1ccnc(NC(=O)C2CC2)c1` [Example 179, 2-(Cyclopropanecarboxamido)-N-(4-(4,4-difluoropiperidin-1-yl)pyrimidin-5-yl)isonicotinamide], the IC50 with pTau (read-out: pTau) came out at 3000 nM; at GSK3β (setting [1]), 160 nM; at GSK3α (setting [2]), 40 nM.

`CC1(C)CC1C(=O)Nc1cc(C(=O)Nc2cnccc2-c2ccccc2)ccn1` (stereo not drawn) [Example 97, 2-(2,2-Dimethylcyclopropanecarboxamido)-N-(4-phenylpyridin-3-yl)isonicotinamide]: the IC50 in the assay with pTau (read-out: pTau) turned out to be 870 nM; at GSK3β (setting [1]), 1.1 nM; on GSK3α (setting [2]), 8.5 nM.

For `O=C(Nc1cnccc1-c1cc(Cl)ccc1F)c1ccnc(NC(=O)C2CC2)c1` [Example 86, 2-(Cyclopropanecarboxamido)-N-(4-(2-fluoro-5-chloro-phenyl)pyridin-3-yl)isonicotinamide], the figures for the IC50 in the assay on pTau (read-out: pTau), on GSK3β (setting [1]) and on GSK3α (setting [2]) were 630 nM, 54 nM and 26 nM, respectively.

`O=C(Nc1cncc(-n2cccn2)c1)c1ccnc(NC(=O)C2CC2)c1` [Example 118, N-(5-(1H-pyrazol-1-yl)pyridin-3-yl)-2-(cyclopropanecarboxamido)isonicotinamide]: the IC50 in the assay on pTau (read-out: pTau) is 330 nM; at GSK3β (setting [1]), 1.5 nM; on GSK3α (setting [2]), 0.74 nM.

Take `O=C(Nc1cncc(Cc2ccccc2)c1)c1ccnc(NC(=O)C2CC2)c1` [Example 110, N-(5-benzylpyridin-3-yl)-2-(cyclopropanecarboxamido)isonicotinamide]: the IC50 with pTau (read-out: pTau) stood at 5600 nM; on GSK3β (setting [1]), 73 nM; at GSK3α (setting [2]), 11 nM.

Consider `O=C(Nc1cncc(-c2ccnc(F)c2F)c1)c1ccnc(NC(=O)C2CC2)c1` [Example 166, 2-(cyclopropanecarboxamido)-N-(2′,3′-difluoro-[3,4′-bipyridin]-5-yl)isonicotinamide], for which the IC50 came to 360 nM with pTau (read-out: pTau), 44 nM on GSK3β (setting [1]) and 11 nM on GSK3α (setting [2]).

For `O=C(Nc1cnccc1C(=O)C(F)(F)F)c1ccnc(NC(=O)C2CC2)c1` [Example 24, 2-(Cyclopropanecarboxamido)-N-(4-(2,2,2-trifluoroacetyl)pyridin-3-yl)isonicotinamide], the IC50 with pTau (read-out: pTau (nM)) was found to be 110 nM; on GSK3β, 0.95 nM; against GSK3α, 1.2 nM.

With `O=C(Nc1cncc(-c2cccc3[nH]ccc23)c1)c1ccnc(NC(=O)C2CC2)c1` [Example 147, N-(5-(1H-indol-4-yl)pyridin-3-yl)-2-(cyclopropanecarboxamido)isonicotinamide], the IC50 in the assay on pTau (read-out: pTau) amounted to 950 nM; on GSK3β (setting [1]), 27 nM; on GSK3α (setting [2]), 5.9 nM.

As to `O=C(Nc1cncc(N2CCCCC2)c1)c1ccnc(NC(=O)C2CC2)c1` [Example 108, 2-(cyclopropanecarboxamido)-N-(5-(piperidin-1-yl)pyridin-3-yl)isonicotinamide], the IC50 is 5400 nM in the assay on pTau (read-out: pTau), 130 nM on GSK3β and 23 nM at GSK3α (setting [2]).

For the compound `Cc1cncc(NC(=O)c2ccnc(NC(=O)C3CC3)c2)c1` [Example 102, 2-(cyclopropanecarboxamido)-N-(5-methylpyridin-3-yl)isonicotinamide], the IC50 in the assay with pTau (read-out: pTau) was 740 nM; against GSK3β, 9.5 nM; at GSK3α (setting [2]), 5.4 nM.

In the case of `O=C(Nc1ccc(-c2ccccc2)nc1)c1ccnc(NC(=O)C2CC2)c1` [Example 10, 2-(Cyclopropanecarboxamido)-N-(6-phenylpyridin-3-yl)isonicotinamide], the results for the IC50 with pTau (read-out: pTau), at GSK3β (setting [1]) and at GSK3α (setting [2]) were 1800 nM, 16 nM and 64 nM, respectively.

As for `O=C(Nc1cnccc1C1CCC1)c1ccnc(NC(=O)C2CC2)c1` [Example 41, N-(4-cyclobutylpyridin-3-yl)-2-(cyclopropanecarboxamido)isonicotinamide], the IC50 amounted to 380 nM in the assay on pTau (read-out: pTau), 7.5 nM against GSK3β and 3 nM at GSK3α (setting [2]).

As for `O=C(Nc1cncc(-c2ccc(F)cc2F)c1)c1ccnc(NC(=O)C2CC2)c1` [Example 114, 2-(cyclopropanecarboxamido)-N-(5-(2,4-difluorophenyl)pyridin-3-yl)isonicotinamide], the IC50 in the assay on pTau (read-out: pTau) was 990 nM; at GSK3β (setting [1]), 1.6 nM; on GSK3α (setting [2]) it was 1.3 nM.

Turning to `CC(C)C(=O)Nc1cc(C(=O)Nc2cnccc2OCC(C)(F)F)ccn1` [Example 202, N-(4-(2,2-Difluoropropoxy)pyridin-3-yl)-2-isobutyramidoisonicotinamide], the results for the IC50 with pTau (read-out: pTau (nM)), at GSK3β and against GSK3α were 50 nM, 1 nM and 0.46 nM, respectively.

As to `NC(=O)c1cncc(NC(=O)c2ccnc(NC(=O)C3CC3)c2)c1` [Example 105, 5-(2-(cyclopropanecarboxamido)isonicotinamido)nicotinamide], the values for the IC50 in the assay with pTau (read-out: pTau), on GSK3β (setting [1]) and at GSK3α (setting [2]) were 6900 nM, 6.5 nM and 3.6 nM, respectively.

For `O=C(Nc1cnccc1N1CCCCCC1)c1ccnc(NC(=O)C2CC2)c1` [Example 53, N-(4-(azepan-1-yl)pyridin-3-yl)-2-(cyclopropanecarboxamido)isonicotinamide], the IC50 with pTau (read-out: pTau) was found to be 1200 nM; at GSK3β (setting [1]), 37 nM; on GSK3α (setting [2]), 14 nM.

Take `O=C(Nc1cncc(-c2ccccc2C(F)(F)F)c1)c1ccnc(NC(=O)C2CC2)c1` [Example 124, 2-(cyclopropanecarboxamido)-N-(5-(2-(trifluoromethyl)phenyl)pyridin-3-yl)isonicotinamide]: the IC50 in the assay on pTau (read-out: pTau) stood at 510 nM; at GSK3β (setting [1]) it was 12 nM; at GSK3α (setting [2]), 6.1 nM.

On to `O=C(Nc1cncs1)c1ccnc(NC(=O)C2CC2)c1` [Example 173, 2-(cyclopropanecarboxamido)-N-(thiazol-5-yl)isonicotinamide], for which the IC50 in the assay with pTau (read-out: pTau) amounted to 2500 nM; on GSK3β (setting [1]), 18 nM; on GSK3α (setting [2]), 14 nM.
